Measurements reported in patent US11850247B2, “Antiviral compounds” (REGENTS OF THE UNIVERSITY OF MINNESOTA, priority 2020, dated 2023).

What was measured:
[1] = Cytotoxicity in TZM-GFP cells (XTT); assay type: cell-based; conditions: human, 72 hours exposure, XTT
Protocol: (§1) The cytotoxicity of each compound was also determined in TZM-GFP cells. Cells were plated at a density of 1×10^4 cells per well in a 96-well plate and were continuously exposed to increasing concentrations of a compound for 72 hours. The number of viable cells in each well was determined using a Cell Proliferation Kit II (XTT), and 50% cytotoxicity concentration (CC50) values were determined. All the cell-based assays were conducted in duplicate and in at least two independent experiments. For the EC50 and CC50 dose responses, values were plotted in GraphPad Prism 5 and analyzed with the log (inhibitor) vs. normalized response-variable slope equation. Final values were calculated in each independent assay and the average values were determined. Statistical analysis (calculation of standard deviation) was performed by using Microsoft Excel.

[2] = target: covalently-crosslinked hexameric CA A14C/E45C/W184A/M185A (CA121) (Human immunodeficiency virus type 1 group M subtype B, UniProt P12493, A146C/E177C/M317A/W316A); test: Thermal shift assay (TSA), CA hexamer stability; assay type: binding, HIV-1; conditions: compound 20 μM, ΔTm=Tm−T0 vs DMSO
HIV-1 = test: Anti-HIV-1 activity in TZM-GFP cells (viral LTR-activated GFP expression); assay type: cell-based; conditions: for EC50: Human immunodeficiency virus 1, HIV-1 strain MOI=1, GFP positive cells counted after 48 hours; for inhibition at 2 µM: Human immunodeficiency virus 1, 2 μM compound; for inhibition at 2 µM / inhibition at 20 µM: HIV-1 MOI=1; for inhibition at 20 µM: Human immunodeficiency virus 1, 20 μM compound
Protocol: The potency of HIV-1 inhibition by a compound was based on its inhibitory effect on viral LTR-activated GFP expression compared with that of compound-free (DMSO) controls. Briefly, TZM-GFP cells were plated at density of 1×10^4 cells per well in a 96-well plate. 24 hours later, media was replaced with increasing concentrations of compound. 24 hours post treatment, cells were exposed to an HIV-1 strain (MOI=1).
as §1

| Compound | CC50 at 72 h [1] [µM] | TSA ΔTm (° C.) [2] [°C] | EC50 (HIV-1) [µM] | inhibition at 2 µM (HIV-1) [%] | inhibition at 20 µM (HIV-1) [%] |
| --- | --- | --- | --- | --- | --- |
| CN(C(=O)[C@H](Cc1ccccc1)NC(=O)CN1C(=O)NC2(CCCCC2)C1=O)c1cccc(Br)c1 [Example 29, N-(3-bromophenyl)-2-(2-(2,4-dioxo-1,3-diazaspiro[4.5]decan-3-yl)acetamido)-N-methyl-3-phenylpropanamide] | > 50 | 1.5 | > 20 |  |  |
| CCN(C(=O)[C@H](Cc1ccccc1)NC(=O)CN1C(=O)NC2(CCCCC2)C1=O)c1ccccc1 [Example 30, 2-(2-(2,4-dioxo-1,3-diazaspiro[4.5]decan-3-yl)acetamido)-N-ethyl-N,3-diphenylpropanamide] | > 100 | 2.0 | 7.6 ± 0.9 |  |  |
| CN(C(=O)[C@H](Cc1ccccc1)NC(=O)Cn1c(=O)[nH]c2ccccc2c1=O)c1ccccc1 [Example 31, (S)-2-(2-(2,4-dioxo-1,4-dihydroquinazolin-3(2H)-yl)acetamido)-N-methyl-N,3-diphenylpropanamide] | > 100 | 2.7 | 6.9 ± 0.8 |  |  |
| CN(C(=O)[C@H](Cc1ccccc1)NC(=O)Cn1c(=O)[nH]c2ccccc2c1=O)c1ccc(F)cc1 [Example 32, (S)-2-(2-(2,4-dioxo-1,4-dihydroquinazolin-3(2H)-yl)acetamido)-N-(4-fluorophenyl)-N-methyl-3-phenylpropanamide] | > 100 | 2.4 | 8 ± 1.3 |  |  |
| CN(C(=O)[C@H](Cc1ccccc1)NC(=O)CNC(=O)c1ccccc1)c1ccccc1 [Example 34, (S)—N-(2-((1-(methyl(phenyl)amino)-1-oxo-3-phenylpropan-2-yl)amino)-2-oxoethyl)benzamide] | > 50 | 1.3 |  | 15 | 96 |
| Cc1ccc(N(C)C(=O)[C@H](Cc2ccccc2)NC(=O)CNC(=O)c2ccccc2)cc1 [Example 35, (S)—N-(2-((1-(methyl(p-tolyl)amino)-1-oxo-3-phenylpropan-2-yl)amino)-2-oxoethyl)benzamide] | > 50 | 5.0 | 1.6 ± 0.02 |  |  |
| CN(C(=O)[C@H](Cc1ccccc1)NC(=O)CNC(=O)c1ccccc1)c1ccc(Cl)cc1 [Example 36, (S)—N-(2-((1-((4-chlorophenyl)(methyl)amino)-1-oxo-3-phenylpropan-2-yl)amino)-2-oxoethyl)benzamide] | > 50 | 4.1 | 0.88 ± 0.02 |  |  |
| CN(C(=O)[C@H](Cc1ccccc1)NC(=O)CNC(=O)c1ccccc1)c1cccc(Cl)c1 [Example 37, (S)—N-(2-((1-((3-chlorophenyl)(methyl)amino)-1-oxo-3-phenylpropan-2-yl)amino)-2-oxoethyl)benzamide] | > 50 | 2.0 |  | 40 | 95 |
| CN(C(=O)[C@H](Cc1ccccc1)NC(=O)CNC(=O)c1ccccc1)c1ccc(F)cc1 [Example 38, (S)—N-(2-((1-((4-fluorophenyl)(methyl)amino)-1-oxo-3-phenylpropan-2-yl)amino)-2-oxoethyl)benzamide] | > 50 | 2.2 |  | 12 | 97 |
| CN(C(=O)[C@H](Cc1ccccc1)NC(=O)CNC(=O)c1ccccc1)c1cccc(F)c1 [Example 39, (S)—N-(2-((1-((3-fluorophenyl)(methyl)amino)-1-oxo-3-phenylpropan-2-yl)amino)-2-oxoethyl)benzamide] | > 50 | 0 |  | 3 | 94 |
| CN(C(=O)[C@H](Cc1ccccc1)NC(=O)CNC(=O)c1ccccc1)c1cccc(Br)c1 [Example 40, (S)—N-(2-((1-((3-bromophenyl)(methyl)amino)-1-oxo-3-phenylpropan-2-yl)amino)-2-oxoethyl)benzamide] | > 50 | 2.2 |  | 38 | 97 |
| CCN(C(=O)[C@H](Cc1ccccc1)NC(=O)CNC(=O)c1ccccc1)c1ccccc1 [Example 41, (S)—N-(2-((1-(ethyl(phenyl)amino)-1-oxo-3-phenylpropan-2-yl)amino)-2-oxoethyl)benzamide] | > 50 | −2.5 | 2.5 ± 0.03 |  |  |
| Cc1cn(CC(=O)N[C@@H](Cc2ccccc2)C(=O)N(C)c2ccccc2)c(=O)[nH]c1=O [Example 42, (S)—N-methyl-2-(2-(5-methyl-2,4-dioxo-3,4-dihydropyrimidin-1(2H)-yl)acetamido)-N,3-diphenylpropanamide] | > 50 | 0.5 |  | 35 | 95 |
| Cc1ccc(N(C)C(=O)[C@H](Cc2ccccc2)NC(=O)Cn2cc(C)c(=O)[nH]c2=O)cc1 [Example 43, (S)—N-methyl-2-(2-(5-methyl-2,4-dioxo-3,4-dihydropyrimidin-1(2H)-yl)acetamido)-3-phenyl-N-(p-tolyl)propenamide] | > 50 | 0.6 |  | 7 | 85 |
| Cc1cn(CC(=O)N[C@@H](Cc2ccccc2)C(=O)N(C)c2ccc(Cl)cc2)c(=O)[nH]c1=O [Example 44, (S)—N-(4-chlorophenyl)-N-methyl-2-(2-(5-methyl-2,4-dioxo-3,4-dihydropyrimidin-1(2H)-yl)acetamido)-3-phenylpropanamide] | > 50 | 1.7 | 1.7 ± 0.2 |  |  |
| Cc1cn(CC(=O)N[C@@H](Cc2ccccc2)C(=O)N(C)c2cccc(Cl)c2)c(=O)[nH]c1=O [Example 45, (S)—N-(3-chlorophenyl)-N-methyl-2-(2-(5-methyl-2,4-dioxo-3,4-dihydropyrimidin-1(2H)-yl)acetamido)-3-phenylpropanamide] | > 50 | 0.6 |  | 37 | 95 |
| Cc1cn(CC(=O)N[C@@H](Cc2ccccc2)C(=O)N(C)c2ccc(F)cc2)c(=O)[nH]c1=O [Example 46, (S)—N-(4-fluorophenyl)-N-methyl-2-(2-(5-methyl-2,4-dioxo-3,4-dihydropyrimidin-1(2H)-yl)acetamido)-3-phenylpropanamide] | > 50 | 0 |  | 6 | 94 |
| Cc1cn(CC(=O)N[C@@H](Cc2ccccc2)C(=O)N(C)c2cccc(F)c2)c(=O)[nH]c1=O [Example 47, (S)—N-(3-fluorophenyl)-N-methyl-2-(2-(5-methyl-2,4-dioxo-3,4-dihydropyrimidin-1(2H)-yl)acetamido)-3-phenylpropanamide] | > 50 | 0.9 |  | 0 | 74 |
| Cc1cn(CC(=O)N[C@@H](Cc2ccccc2)C(=O)N(C)c2cccc(Br)c2)c(=O)[nH]c1=O [Example 48, (S)—N-(3-bromophenyl)-N-methyl-2-(2-(5-methyl-2,4-dioxo-3,4-dihydropyrimidin-1(2H)-yl)acetamido)-3-phenylpropanamide] | > 50 | 0.5 |  | 22 | 99.7 |
